# Laboratory results from article PMC9769694, “Discovery of Two Inhibitors of the Type IV Pilus Assembly ATPase PilB as Potential Antivirulence Compounds” (Microbiology Spectrum, 2022).
# Test system: M. xanthus motility
# Experiment: Colony expansion of S-motile strains on hard agar
# Type: cell-based, Myxococcus xanthus
# Settings: strains YZ1674 and YZ2232, P < 0.05
# Excerpt: On the other hand, YZ1674 and YZ2232, which have both A and S motility, were affected in their expansion on hard agar by both compounds (Fig. S4 and S5) at concentrations similar to those on soft agar. Indeed, the results with hard agar plates mirror those with soft agar. […] Because neither benserazide nor levodopa had any effect on A motility (Fig. S3C and D), the net differences on hard agar at different concentrations of the inhibitor (Fig. S4) can be viewed as confirmation of its effect on S motility (Fig. 5). […] It is plausible that this inhibition is attributable to their effects on the PilB ATPase in vivo.
# M. xanthus was grown and maintained at 32°C in Casitone-yeast extract (CYE) medium ([49]). Motility assays were conducted with strains DK10416 (ΔpilB) ([40]), YZ1674 (ΔpilB att::MxpilB) ([50]), and YZ2232 (ΔpilB att::MC3pilB) ([30], [51]) as previously described ([28]). One modification was that 10% India ink was included in the cell suspension to mark the initial spot on agar plates. All experiments were conducted in quintuplicates and the diameter of the initial spot, as marked by India ink, was subtracted for data analysis.
row,SMILES,concentration giving statistically significant reduction of expansion on hard agar [µM]
1,"N[C@@H](Cc1ccc(O)c(O)c1)C(=O)O [levodopa, 3,4-dihydroxyphenylalanine]",≥ 32
2,NC(CO)C(=O)NNCc1ccc(O)c(O)c1O (centres unmarked) [benserazide],≥ 8
